Data published in PubChem BioAssay (NCI).
Where “and” joins values, the source holds several entries; their conditions need not be identical. Identical values can stand only once.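 Cultured in 96-well plates, cells were exposed to test compound for 48 hours across five concentrations. GI50 = concentration required for 50% inhibition of growth. TGI: concentration producing complete growth inhibition.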

How the values were obtained:
Assay in all cases: DTP human tumour cell line panel, 48 h
OVCAR-8 ovarian = tested on: OVCAR-8 ovarian
COLO 205 colon = tested on: COLO 205 colon
MOLT-4 leukemia = tested on: MOLT-4 leukemia
EKVX NSCLC = tested on: EKVX NSCLC
HS 578T breast = tested on: HS 578T breast
UACC-257 melanoma = tested on: UACC-257 melanoma
SF-539 CNS = tested on: SF-539 CNS
NCI-H460 lung = tested on: NCI-H460 lung
A498 renal = tested on: A498 renal
HCC-2998 colon = tested on: HCC-2998 colon

Row | Compound | TGI (OVCAR-8 ovarian) [µM] | TGI (COLO 205 colon) | TGI (MOLT-4 leukemia) [µM] | TGI (EKVX NSCLC) [µM] | TGI (HS 578T breast) | TGI (UACC-257 melanoma) | TGI (SF-539 CNS) | TGI (NCI-H460 lung) [µM] | TGI (A498 renal) | TGI (HCC-2998 colon) | GI50 (OVCAR-8 ovarian) | GI50 (COLO 205 colon) | GI50 (MOLT-4 leukemia) | GI50 (EKVX NSCLC) [µM] | GI50 (HS 578T breast) | GI50 (UACC-257 melanoma) | GI50 (SF-539 CNS) | GI50 (NCI-H460 lung) | GI50 (A498 renal) [µM] | GI50 (HCC-2998 colon)
1 | Nc1ccc2c(SCC(=O)Nc3ccccc3-c3ccccc3NC(=O)CSc3c4ccccc4nc4cc(N)ccc34)c3ccccc3nc2c1 | 73.2 | 43 µM | > 44.1 | > 100 | > 90 µM | 71.9 µM | 64.8 µM | 97.8 | 65.9 µM | 61.7 µM | – | – | – | – | – | – | – | – | – | –
2 | Oc1cccc(-c2nc(N3CCOCC3)c3oc4ncccc4c3n2)c1 | 6.75 | 41.7 µM and > 72 µM | > 100 | 0.82 | 2.94 µM and 0.409 µM | 3.39 µM and 3.79 µM | 0.594 µM and 0.635 µM | > 100 | 9.35 µM and 3.98 µM | 8.87 µM and > 33.9 µM | 0.238 µM and 0.193 µM | 10.5 µM and 17.8 µM | 0.102 µM and 0.168 µM | 0.213 | 0.0576 µM and 0.0526 µM | 0.593 µM and 0.421 µM | 0.137 µM and 0.131 µM | 0.359 µM and 0.419 µM | 1.96 | 1.85 µM and 0.401 µM
3 | Cc1cc(C)c2nccc(NCCCN(C)C)c2c1[N+](=O)[O-] | > 100 | 28.5 µM | > 100 | > 100 | > 100 µM | 33.7 µM | 84.8 µM | > 100 | > 100 µM | 51.1 µM | – | – | – | – | – | – | – | – | – | –
4 | N#CC1=C(N)Oc2c(sc3c(Br)cccc23)C1c1ccc(F)cc1 (stereo not given) | 24.4 | 1.69 µM | 14.2 | 23.2 | 52.7 µM | 42.7 µM | – | 14.6 | 16.7 µM | 10.1 µM | 0.76 µM | 0.366 µM | 0.473 µM | 0.534 | 0.851 µM | 13 µM | – | 0.376 µM | 0.314 | 0.797 µM
5 | Cc1cc([C@H](C)Nc2nccc(N3C(=O)OC[C@@H]3[C@H](C)F)n2)ncc1-c1ccnc(C(F)(F)F)c1 | > 100 | 62.9 µM | > 100 | > 100 | > 100 µM | > 100 µM | > 100 µM | > 100 | 92.1 µM | > 100 µM | 33.5 µM | 21.9 µM | 34.6 µM | 19.2 | 39.2 µM | 30.5 µM | 61.3 µM | 37.4 µM | 15.6 | 72.6 µM
6 | NCCNc1nc2ccccc2c2c(=O)c3cc(F)cc(Cl)c3sc12 | 3.57 | 3.31 µM | 3.69 | 3.13 | 3.7 µM | 3.72 µM | 3.08 µM | 3.25 | 3.31 µM | 3.45 µM | 1.61 µM | 1.69 µM | 1.82 µM | 1.6 | 1.63 µM | 1.85 µM | 1.7 µM | 1.7 µM | 1.56 | 1.75 µM
7 | CC(C)(C)OC(=O)n1c(Cl)c(C(=O)N=C=S)c2ccccc21 | 66.1 | > 100 µM | – | 98.7 | 68.2 µM | > 100 µM | 55.1 µM | > 100 | > 100 µM | > 100 µM | 23.3 µM | 33.6 µM | – | 29.6 | 25.5 µM | 55.4 µM | 23 µM | 39.6 µM | 92.6 | 38.9 µM
8 | Cc1ccc2c(C(C[N+](=O)[O-])c3ccco3)c(-c3ccccc3)[nH]c2c1 (stereo not given) | > 100 | > 100 µM | > 100 | > 100 | > 100 µM | > 100 µM | > 100 µM | > 100 | 74.3 µM | > 100 µM | 84.8 µM | 31.7 µM | 30.7 µM | 55 | 17.5 µM | > 100 µM | 30.6 µM | 26.7 µM | 4.02 | > 100 µM
9 | COc1ccccc1-c1nccc(COc2ccccc2C[C@@H](Oc2ncnc3sc(-c4ccc(F)cc4)c(-c4ccc(OCCN5CCN(C)CC5)c(Cl)c4C)c23)C(=O)O)n1 | > 28.4 | 4.33 µM | 1.54 | 5.03 | 3.29 µM | 11.2 µM | 2.59 µM | 5.84 | 0.522 µM | 2.78 µM | 2.9 µM | 1.86 µM | 0.0436 µM | 1.32 | 0.515 µM | 3.01 µM | 1.21 µM | 2.09 µM | – | 1.31 µM
10 | COc1ccc(-c2nn3ncccc3c2-c2ccnc(Nc3cccc(C(F)(F)F)c3)n2)cc1 | > 25 | > 25 µM | > 25 | > 25 | > 25 µM | > 25 µM | > 25 µM | > 25 | > 20.3 µM | 18.6 µM | 8.74 µM | 17 µM | 8.8 µM | 6.69 | 8.29 µM | 9.34 µM | 13.8 µM | 7.62 µM | 4.41 | 5.33 µM
11 | O=C1Nc2ccc(Br)cc2C1=Nc1ccc(Cl)cc1 | 26.7 | 4.71 µM | > 100 | 47.1 | > 100 µM | 79.1 µM | 19.4 µM | > 100 | > 100 µM | 39.7 µM | – | – | – | – | – | – | – | – | – | –
12 | Cc1cc(Nc2cc(N3CCN(C)CC3)nc(C#Cc3ccccc3)n2)n[nH]1 | 22.3 | 4.62 µM | 19.2 | 23.4 | 6.22 µM | 15.9 µM | 10.8 µM | 13 | 3.68 µM | 13.1 µM | 6.5 µM | 1.69 µM | 3.46 µM | 11 | 1.74 µM | 3.58 µM | 2.79 µM | 2.07 µM | 0.703 | 2.71 µM
13 | Fc1ccc(-c2cc(-c3cn[nH]c3-c3ccccn3)ccn2)cc1 | > 25 | > 25 µM | > 25 | > 25 | > 25 µM | > 25 µM | > 25 µM | > 25 | > 25 µM | > 25 µM | > 25 µM | > 25 µM | > 25 µM | > 25 | > 25 µM | > 25 µM | > 25 µM | 24.7 µM | 24.8 | > 25 µM
14 | CCCCCCCCCCCCNC(=O)[C@H]1CSC(c2ccsc2)N1 (stereo not given in full) | 2.26 | 15.9 µM | 1.84 | 1.85 | 2.45 µM | 1.7 µM | 1.7 µM | 1.84 | 17.1 µM | 2.15 µM | 1.11 µM | 7.95 µM | 0.895 µM | 0.991 | 1.17 µM | 0.946 µM | 0.902 µM | 0.986 µM | 9.62 | 0.955 µM
